SMILES strings stand for the structures.

For assay [1], the target named is GtfB (Streptococcus mutans serotype c (strain ATCC 700610 / UA159), UniProt P08987). Put plainly: Zymographic assay on GtfB from S. mutans GtfCD mutants. In kind it is biochemical. The following applies: 25 μM. As to the method: FIGS. 3A-3C show Gtf patterns of S. mutans UA159 and its mutant variants. Culture supernatants were prepared from S. mutans UA159 and gtf double mutants, and then subjected to SDS-PAGE analysis with equivalent amount of proteins in each lane. […] The intensity of the bands were quantified using ImageJ in comparison to DMSO.
Supernatants containing Gtf proteins prepared from S. mutans bacterial cultures were subjected to SDS-PAGE analysis and zymographic assay. […] The same amount of the protein sample was used as controls and visualized by protein staining (FIG. 3A, top panels). The lead compounds were also tested against individual Gtfs using supernatant proteins harvested from cultures of various double mutants.
Construction of S. mutans Gtfs mutants. GtfB, GtfC single mutant, and GtfBC double mutant in which gtf was replaced with a kanamycin resistance cassette, aphA3 (encoding an aminoglycoside phosphotransferase), were gifts from Dr. Robert Burne's Laboratory, University of Florida, Gainesville, Fla. The GtfD mutant was constructed by an overlapping PCR ligation strategy using an erythromycin resistance cassette isolated from the IFDC2 cassette (Xie, Z., Okinaga, T., Qi, F., Zhang, Z. & Merritt, J. Cloning-independent and counterselectable markerless mutagenesis system in Streptococcus mutans. Appl Environ Microbiol 77, 8025-8033 (2011)).

Assay [2] deals with gtfs expression. Put plainly: Real time RT-PCR of gtfs expression. In kind it is cell-based, Streptococcus mutans. The conditions noted are these: S. mutans UA159, different concentrations, calibrated by 16S rRNA. As to the method: The expression of gtfs was examined by real time RT-PCR. The mRNA expression levels were calibrated by 16S rRNA. Values represent the means±standard deviations from three independent experiments. […] The P value>0.05 is considered to be not significant.
The effect of this potent small molecule on the gene expression of gtfs was also examined. The relative expression level of gtfs was evaluated by real time RT-PCR.
(In general: Quantitative PCR measures a nucleic acid by following its amplification.)

The subject of assay [3] is Aggregatibacter actinomycetemcomitans VT1169. Put plainly: Growth of Aggregatibacter actinomycetemcomitans. In kind it is cell-based. The conditions noted are these: 200 μM. On the procedure:
(§1) Cell viability of S. mutans, S. gordonii, S. sanguinis, Aggregatibacter actinomycetemcomitans and Actinomyces. […] The number of colony-forming units (CFU) per milliliter of each sample treated with selected compounds at different concentrations was enumerated after incubation for 24 h at 37° C. and compared to the values obtained from the DMSO control group. Overnight broth cultures were transferred by 1:50 dilutions into fresh THB medium and were allowed to grow until mid-exponential phase (OD470 nm 0.6) before transfer to 96-well plates containing desired concentration of the compound. After 16 h incubation, bacterial growth was measured at OD470, and normalized to the DMSO control (100%).

For assay [4], the system named is Actinomyces naeslundii T14VJ1. The experiment in a line: Growth of Actinomyces naeslundii. In kind it is cell-based. The following applies: 200 μM; printed as slight inhibition (>20%). On the procedure: as §1
In assay [5] the test system is S. gordonii biofilm. Put plainly: Mono-species biofilm of S. gordonii. In kind it is cell-based, Streptococcus gordonii. The following applies: treated with lead compound. As to the method: Growth of commensal and dual-species biofilms. Overnight broth cultures were transferred by 1:50 dilutions into fresh THB medium and were allowed to grow until mid-exponential phase (OD470 nm=0.6) before transfer to 96-well plates. For mono-species biofilms, 1:100 dilution of the individual cultures was added to the 96-well plate containing the desired concentration of compound or DMSO. After incubation for 16 h, the biofilms were gently washed with PBS in triplicate and the biofilms were quantified with crystal violet staining. For dual-species biofilms, 1:100 dilution of S. mutans was used and 1:10 dilution of the commensal species (S. sanguinius or S. gordonii) was used as inoculum to seed the 96-well plate containing the desired concentration of compound or DMSO. After incubation for 16 h, the biofilms were scratched off with a sterile spatula and suspended in 100 μL of PBS, the biofilm samples were vortexed. To determine the total number of viable bacterial cells (colony forming units, CFU), 100 μl from dispersed, 16 h biofilms were serially diluted in potassium phosphate buffer and plated in duplicate on BAP. The commensal species could be differentiated from S. mutans due to their characteristic green rings.

The subject of assay [6] is S. mutans colonization. The experiment in a line: Sucrose-dependent Drosophila colonization model. In kind it is in vivo. The conditions noted are these: 50 μM.
Method: Briefly, Gfp tagged S. mutans bacteria were infected into flies along with the treatment appropriate compound at 100 μM in a feeding-assay.
Mid-log phase THB cultures of Gfp-tagged (green fluorescent protein) S. mutans UA159 were spun down and resuspended in a solution containing 5% sucrose and 50 μM of the compound. 100 μL of resuspended cells were spotted onto a sterile filter that was placed on the surface of 5 mL of solidified 5% sucrose agar in a plastic vial. The vials were allowed to dry at room temperature for 30 minutes prior to addition of flies. Male Canton S flies (1-3 days old) were treated with antibiotics for 2 days and starved for 3 hours prior to the addition to vials supplied with S. mutans (10 flies per vial). The colonization of flies by Gfp-tagged strains were analyzed by Nikon elipse 90i microscope, equipped with an Epi-fluorescence and NIS elements AR imaging system.
The intensity of the fluorescence was measured in the guts of the flies fed with the Gfp tagged bacteria after 7 days of infection.
Cultures of Gfp-tagged (green fluorescent protein) S. mutans UA159 grown to middle log phase were spun down and re-suspended in a solution containing 5% sucrose and 50 μM of each compound. 100 μL of re-suspended cells were aliquoted onto a sterile filter that was placed on the surface of 5 mL of solidified 5% sucrose agar in a plastic vial. Upon the drying of the vials at room temperature for 30 min, the flies were introduced to the vessels. Male Canton S flies (1-3 days old) were treated with antibiotics for 2 days and starved for 3 h before the addition to vials supplied with S. mutans (10-14 flies per vial). Nikon elipse 90i microscope, equipped with an Epi-fluorescence and NIS elements AR imaging system was used to analyze the colonization of flies by Gfp-tagged strains.

Chain of GtfB (P08987 35-1476 limits assumed): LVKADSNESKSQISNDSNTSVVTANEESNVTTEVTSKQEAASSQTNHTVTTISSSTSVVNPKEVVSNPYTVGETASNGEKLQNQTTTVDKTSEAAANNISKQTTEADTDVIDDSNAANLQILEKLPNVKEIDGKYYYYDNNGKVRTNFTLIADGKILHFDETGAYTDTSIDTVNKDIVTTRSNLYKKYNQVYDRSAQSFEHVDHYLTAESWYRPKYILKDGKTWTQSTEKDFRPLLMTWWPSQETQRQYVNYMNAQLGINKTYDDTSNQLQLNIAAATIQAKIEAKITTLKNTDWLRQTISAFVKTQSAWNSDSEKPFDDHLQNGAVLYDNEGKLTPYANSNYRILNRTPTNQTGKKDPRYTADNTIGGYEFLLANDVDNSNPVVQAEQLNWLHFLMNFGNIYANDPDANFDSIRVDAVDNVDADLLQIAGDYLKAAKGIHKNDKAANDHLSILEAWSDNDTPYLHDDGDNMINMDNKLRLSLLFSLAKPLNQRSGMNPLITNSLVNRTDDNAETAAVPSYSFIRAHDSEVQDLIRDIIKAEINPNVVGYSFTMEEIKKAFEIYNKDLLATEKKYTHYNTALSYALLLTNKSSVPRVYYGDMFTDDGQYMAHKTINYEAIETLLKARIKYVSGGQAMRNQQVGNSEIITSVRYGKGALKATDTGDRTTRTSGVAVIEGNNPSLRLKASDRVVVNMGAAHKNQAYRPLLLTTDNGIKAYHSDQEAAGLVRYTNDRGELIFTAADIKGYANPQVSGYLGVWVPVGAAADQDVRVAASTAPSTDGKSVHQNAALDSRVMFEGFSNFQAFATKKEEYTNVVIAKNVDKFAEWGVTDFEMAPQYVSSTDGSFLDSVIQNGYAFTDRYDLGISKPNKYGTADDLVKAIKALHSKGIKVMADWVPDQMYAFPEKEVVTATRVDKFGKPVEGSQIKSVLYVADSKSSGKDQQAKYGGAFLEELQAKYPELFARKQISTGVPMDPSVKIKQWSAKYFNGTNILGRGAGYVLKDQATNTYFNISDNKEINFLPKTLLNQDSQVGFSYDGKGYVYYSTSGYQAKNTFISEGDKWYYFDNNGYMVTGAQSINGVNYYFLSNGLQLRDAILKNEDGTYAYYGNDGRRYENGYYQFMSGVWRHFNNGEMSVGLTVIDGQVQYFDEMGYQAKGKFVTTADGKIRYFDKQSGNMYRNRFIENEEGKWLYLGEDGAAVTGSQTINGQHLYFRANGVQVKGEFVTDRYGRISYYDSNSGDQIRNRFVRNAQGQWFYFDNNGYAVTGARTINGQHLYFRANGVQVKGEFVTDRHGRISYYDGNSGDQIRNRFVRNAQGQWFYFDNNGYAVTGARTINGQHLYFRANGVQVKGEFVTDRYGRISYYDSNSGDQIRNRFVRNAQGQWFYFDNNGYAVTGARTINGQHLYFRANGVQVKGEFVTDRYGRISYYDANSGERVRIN

Consider `NC(=O)c1ccccc1NC(=O)c1cc2cc([N+](=O)[O-])ccc2s1` [#G43], for which, in assay [1], the “inhibition of GtfB activity (ImageJ band intensity)” value was 80%. The “expression of gtfs versus DMSO” value in assay [2] is recorded as “no significant difference was observed”. Also, in assay [3], the “inhibition of Aggregatibacter actinomycetemcomitans growth” value is “no significant inhibition”. Besides, the “inhibition of Actinomyces naeslundii growth” value in assay [4] was greater than 20%. Besides, the “S. gordonii biofilm formation” value in assay [5] is listed as “slight increase”.

As to `Oc1cc(O)cc(/C=C/c2ccc(O)c(O)c2)c1` [Piceatannol], the “fluorescence of Gfp tagged S. mutans in fly guts after 7 days” value in assay [6] is “significant decrease in fluorescence”.

The values are drawn from US11866416B2, “Streptococcus mutans glucosyl transferase inhibitors for dental caries therapy” (UAB Research Foundation, priority 2018, dated 2024).
